The numbers were not newly measured in patent US20170108488A1, “Array and Method of Use” (Quick Biology, Inc., priority 2015, published 2017), which cites them from elsewhere.

Structures are written as SMILES.

Data set [1] relates to SB-2 tumor xenograft. The following applies: in combination with the MEK inhibitor GSK1120212; NRAS mutant melanoma.
In data set [2] the target is BRAF (Homo sapiens, UniProt P15056, V600E). The following applies: melanomas with BRAF activating mutations.
Sequence of BRAF (P15056 whole entry V600E): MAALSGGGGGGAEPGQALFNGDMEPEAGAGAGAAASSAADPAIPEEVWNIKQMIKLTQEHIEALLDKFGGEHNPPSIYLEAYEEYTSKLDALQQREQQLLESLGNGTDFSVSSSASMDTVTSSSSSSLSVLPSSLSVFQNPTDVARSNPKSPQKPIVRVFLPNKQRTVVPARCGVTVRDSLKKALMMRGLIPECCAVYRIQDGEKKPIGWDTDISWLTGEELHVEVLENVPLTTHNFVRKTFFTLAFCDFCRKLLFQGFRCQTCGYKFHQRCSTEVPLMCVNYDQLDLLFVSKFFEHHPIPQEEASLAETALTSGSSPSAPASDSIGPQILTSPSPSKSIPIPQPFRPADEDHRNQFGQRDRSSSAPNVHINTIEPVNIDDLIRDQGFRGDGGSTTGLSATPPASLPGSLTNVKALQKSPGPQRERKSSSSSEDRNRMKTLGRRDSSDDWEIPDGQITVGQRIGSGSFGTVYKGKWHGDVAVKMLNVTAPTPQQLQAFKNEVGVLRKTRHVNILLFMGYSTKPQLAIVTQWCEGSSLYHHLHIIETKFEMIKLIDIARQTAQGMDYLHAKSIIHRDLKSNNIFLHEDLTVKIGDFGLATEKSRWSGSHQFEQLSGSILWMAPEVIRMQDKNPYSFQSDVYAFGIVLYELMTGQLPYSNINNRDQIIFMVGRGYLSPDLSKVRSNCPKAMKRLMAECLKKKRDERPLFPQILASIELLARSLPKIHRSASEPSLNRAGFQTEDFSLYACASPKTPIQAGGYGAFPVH

For `CC(=O)c1c(C)c2cnc(Nc3ccc(N4CCNCC4)cn3)nc2n(C2CCCC2)c1=O` [PD-0332991], the “tumor response in SB-2 tumor xenograft” value in data set [1] was “tumor regression was achieved”. For the compound `CCCS(=O)(=O)Nc1ccc(F)c(C(=O)c2c[nH]c3ncc(-c4ccc(Cl)cc4)cc23)c1F` [PLX4032], the “success rate in melanomas” value in data set [2] is reported as “high success rate”.
